Test results as given in patent publication US20130196984A1, “3-AMINO-5-PHENYL-56-DIHYDRO-2H-[1,4]OXAZINES” (Siena Biotech S.p.A., priority 2009, published 2013).
Structures can show the parent of a compound that is named as a salt.

Experiments:
[1] = molecular target: T1, BACE2 (Homo sapiens, UniProt Q9Y5Z0); assay: Assay A: binding studies using SPR based methods, immobilised BACE2; conditions: CM5 chip, immobilised BACE2 enzyme ectodomain, acetate buffer pH 4.6, 4% DMSO
T1 construct: BACE2 enzyme ectodomain (derived from plasmid “pET17b-T7-hu proBACE2”); T7 (N); made in house
T1 sequence (Q9Y5Z0 63-473 limits assumed): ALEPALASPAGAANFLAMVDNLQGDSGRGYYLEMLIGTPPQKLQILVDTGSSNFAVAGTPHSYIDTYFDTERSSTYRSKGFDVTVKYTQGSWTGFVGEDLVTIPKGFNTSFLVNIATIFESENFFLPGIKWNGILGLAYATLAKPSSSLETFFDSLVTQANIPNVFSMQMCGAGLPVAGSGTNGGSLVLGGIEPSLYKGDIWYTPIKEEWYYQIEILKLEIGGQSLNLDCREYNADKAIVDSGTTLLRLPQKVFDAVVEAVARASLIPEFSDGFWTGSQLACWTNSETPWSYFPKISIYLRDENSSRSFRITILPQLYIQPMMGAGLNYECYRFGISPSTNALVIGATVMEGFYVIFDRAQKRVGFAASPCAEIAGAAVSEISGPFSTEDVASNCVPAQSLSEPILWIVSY

[2] = molecular target: T2, BACE1 (Homo sapiens, UniProt P56817); assay: Assay A: binding studies using SPR based methods, immobilised BACE1; parameters: 6his-tagged full length BACE 1 expressed in SF9 cells; 6His; made in house; host or cells: SF9 insect cells; conditions: CM5 chip, immobilised 6his-tagged full length BACE 1, acetate buffer pH 4.6, 4% DMSO;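 note: KD from a 1:1 kinetic fit (koff/kon) of real-time association and dissociation curves, or for fast binders from end-of-association equilibrium responses plotted against log concentration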
[3] = molecular target: T2, BACE1; assay: Cellular Abeta-lowering assay; format: cell-based; parameters: endogenous in cells; host or cells: HEK293 stably transfected with human APP695 wt; conditions: HEK293 cells stably transfected with human APP wt (APP695), Aβ40 ELISA of supernatant after 18-20 hrs

T2 sequence (P56817 46-501): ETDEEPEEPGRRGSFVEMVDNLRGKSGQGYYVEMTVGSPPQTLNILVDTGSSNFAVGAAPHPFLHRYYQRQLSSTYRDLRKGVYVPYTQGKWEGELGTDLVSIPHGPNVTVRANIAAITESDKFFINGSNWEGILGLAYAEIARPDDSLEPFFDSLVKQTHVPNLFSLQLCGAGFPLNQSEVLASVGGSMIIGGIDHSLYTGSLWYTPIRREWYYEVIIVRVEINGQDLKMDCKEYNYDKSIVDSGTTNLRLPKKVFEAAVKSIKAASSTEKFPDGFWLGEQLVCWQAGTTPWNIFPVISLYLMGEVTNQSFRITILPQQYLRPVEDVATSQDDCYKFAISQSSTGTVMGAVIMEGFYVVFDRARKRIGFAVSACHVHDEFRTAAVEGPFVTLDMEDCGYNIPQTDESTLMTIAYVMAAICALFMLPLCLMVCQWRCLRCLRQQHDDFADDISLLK

Row | Kd [1] | Kd [2] | IC50 [3] | Compound
1 | 6 µM | 1.5 µM | – | CCC(C)c1cc(Cl)cnc1C(=O)Nc1ccc(F)c([C@]2(C)COCC(N)=N2)c1 (mixture of isomers) [Example 71, 3-((RS)-sec-butyl)-5-chloro-pyridine-2-carboxylic acid [3-((R)-5-amino-3-methyl-3,6-dihydro-2H-[1,4]oxazin-3-yl)-4-fluoro-phenyl]-amide hydrochloride]
2 | 6.9 µM | > 10 µM | – | C[C@@]1(c2cc(NC(=O)C(CC3CCCO3)C(F)(F)F)ccc2F)COCC(N)=N1 (mixture of isomers) [Example 85, (RS)—N-[3-((R)-5-amino-3-methyl-3,6-dihydro-2H-[1,4]oxazin-3-yl)-4-fluoro-phenyl]-3,3,3-trifluoro-2-[(RS)-1-(tetrahydro-furan-2-yl)methyl]-propionamide formate]
3 | 6.1 µM | > 10 µM | – | C[C@@]1(c2cc(NC(=O)C3CCOC3)ccc2F)COCC(N)=N1 (mixture of isomers) [Example 96, (RS)-tetrahydro-furan-3-carboxylic acid [3-((R)-5-amino-3-methyl-3,6-dihydro-2H-[1,4]oxazin-3-yl)-4-fluoro-phenyl]-amide formate]
4 | 0.58 µM | 1.68 µM | – | CC1(c2cccc(NC(=O)c3ccc(Cl)cc3F)c2)COCC(N)=N1 (racemic) [Example 3, (RS)—N-[3-(5-amino-3-methyl-3,6-dihydro-2H-[1,4]oxazin-3-yl)-phenyl]-4-chloro-2-fluoro-benzamide]
5 | 5.3 µM | 62.5 µM | – | CC1(c2cccc(NC(=O)c3cc(F)ccc3F)c2)COCC(N)=N1 (racemic) [Example 5, (RS)—N-[3-(5-amino-3-methyl-3,6-dihydro-2H-[1,4]oxazin-3-yl)-phenyl]-2,5-difluoro-benzamide]
6 | 0.361 µM | 3.3 µM | – | Cc1nc(C(=O)Nc2cccc(C3(C)COCC(N)=N3)c2)cs1 (racemic) [Example 10, (RS)-2-methyl-thiazole-4-carboxylic acid [3-(5-amino-3-methyl-3,6-dihydro-2H-[1,4]oxazin-3-yl)-phenyl]-amide]
7 | 0.044 µM | 0.49 µM | 0.041 µM | Cc1nc(C(=O)Nc2cccc(C3(C)COCC(N)=N3)c2)c(C)o1 (racemic) [Example 11, (RS)-2,5-dimethyl-oxazole-4-carboxylic acid [3-(5-amino-3-methyl-3,6-dihydro-2H-[1,4]oxazin-3-yl)-phenyl]-amide]
8 | 5.4 µM | 33 µM | – | CC1(c2cccc(NC(=O)c3ccn(CC(F)(F)F)n3)c2)COCC(N)=N1 (racemic) [Example 14, (RS)-1-(2,2,2-trifluoro-ethyl)-1H-pyrazole-3-carboxylic acid [3-(5-amino-3-methyl-3,6-dihydro-2H-[1,4]oxazin-3-yl)-phenyl]-amide]
9 | 6.7 µM | 20.1 µM | – | Cn1nc(C(=O)Nc2cccc(C3(C)COCC(N)=N3)c2)c2ccccc21 (racemic) [Example 15, (RS)-1-methyl-1H-indazole-3-carboxylic acid [3-(5-amino-3-methyl-3,6-dihydro-2H-[1,4]oxazin-3-yl)-phenyl]-amide]
10 | 0.513 µM | 1.41 µM | – | CC1(c2cccc(NC(=O)c3cc4ccccn4n3)c2)COCC(N)=N1 (racemic) [Example 16, (RS)-Pyrazolo[1,5-a]pyridine-2-carboxylic acid [3-(5-amino-3-methyl-3,6-dihydro-2H-[1,4]oxazin-3-yl)-phenyl]-amide]
11 | 10.8 µM | 0.309 µM | 0.16 µM | NC1=NC(c2cc(NC(=O)c3ccc(OCC(F)(F)F)cn3)ccc2F)(C2CC2)COC1 (racemic) [Example 23, (RS)-5-(2,2,2-Trifluoro-ethoxy)-pyridine-2-carboxylic acid [3-(5-amino-3-cyclopropyl-3,6-dihydro-2H-[1,4]oxazin-3-yl)-4-fluoro-phenyl]-amide]
12 | 5.75 µM | 1.88 µM | 0.12 µM | CC1(c2cccc(NC(=O)c3ccc(OCC(F)(F)F)cn3)c2)COCC(N)=N1 (racemic) [Example 24, (RS)-5-(2,2,2-Trifluoro-ethoxy)-pyridine-2-carboxylic acid [3-(5-amino-3-methyl-3,6-dihydro-2H-[1,4]oxazin-3-yl)-phenyl]-amide hydrochloride]
13 | 1.22 µM | 4.17 µM | 0.41 µM | CC1(c2cccc(NC(=O)c3cnccn3)c2)COCC(N)=N1 (racemic) [Example 25, (RS)-Pyrazine-2-carboxylic acid [3-(5-amino-3-methyl-3,6-dihydro-2H-[1,4]oxazin-3-yl)phenyl]-amide hydrochloride]
14 | 20 µM | 4.2 µM | 0.67 µM | CCCCc1ccc(C(=O)Nc2cccc(C3(C)COCC(N)=N3)c2)nc1 (racemic) [Example 32, 5-butyl-pyridine-2-carboxylic acid [3-((RS)-5-amino-3-methyl-3,6-dihydro-2H-[1,4]oxazin-3-yl)-phenyl]-amide hydrochloride]
15 | – | – | 0.01 µM | CC1(c2cccc(NC(=O)c3ncc(Cl)cc3F)c2)COCC(N)=N1 (racemic) [Example 68, hydrochloride]
16 | – | – | 0.009 µM | CC1(c2cccc(NC(=O)c3ccc(C#N)cn3)c2)COCC(N)=N1 (racemic) [Example 69, 5-cyano-pyridine-2-carboxylic acid [3-((RS)-5-amino-3-methyl-3,6-dihydro-2H-[1,4]oxazin-3-yl)-phenyl]-amide hydrochloride]
17 | 4.9 µM | 4 µM | – | CC1(c2cc(NC(=O)CC(F)(F)F)ccc2F)COCC(N)=N1 (racemic) [Example 79, (RS)—N-[3-(5-Amino-3-methyl-3,6-dihydro-2H-[1,4]oxazin-3-yl)-4-fluoro-phenyl]-3,3,3-trifluoro-propionamide]
18 | – | – | 0.023 µM | C[C@@]1(c2cc(NC(=O)c3ccc(Cl)cn3)ccc2F)CO[C@H](c2ccccc2)C(N)=N1 [Example 30, 5-Chloro-pyridine-2-carboxylic acid [3-((3R,6R)-5-amino-3-methyl-6-phenyl-3,6-dihydro-2H-[1,4]oxazin-3-yl)-4-fluoro-phenyl]-amide]
19 | – | – | 0.023 µM | C[C@@]1(c2cc(NC(=O)c3ccc(Cl)cn3)ccc2F)CO[C@@H](c2ccccc2)C(N)=N1 [Example 31, 5-Chloro-pyridine-2-carboxylic acid [3-((3R,6S)-5-amino-3-methyl-6-phenyl-3,6-dihydro-2H-[1,4]oxazin-3-yl)-4-fluoro-phenyl]-amide]
20 | 6.1 µM | > 10 µM | – | CC1(C)OCC(N)=N[C@]1(C)c1cc(NC(=O)C2CC2)ccc1F [Example 54, cyclopropanecarboxylic acid [3-((R)-5-amino-2,2,3-trimethyl-3,6-dihydro-2H-[1,4]oxazin-3-yl)-4-fluoro-phenyl]-amide]
21 | 3.6 µM | > 10 µM | – | C[C@@]1(c2cc(NC(=O)C3CC(Cl)C3)ccc2F)COCC(N)=N1 (stereo partly drawn) [Example 58, 3-chloro-cyclobutanecarboxylic acid [3-((R)-5-amino-3-methyl-3,6-dihydro-2H-[1,4]oxazin-3-yl)-4-fluoro-phenyl]-amide]
22 | 4 µM | 9.6 µM | – | C[C@@]1(c2cc(NC(=O)C3CC(F)(F)C3)ccc2F)COCC(N)=N1 [Example 59, 3,3-difluoro-cyclobutanecarboxylic acid [3-((R)-5-amino-3-methyl-3,6-dihydro-2H-[1,4]oxazin-3-yl)-4-fluoro-phenyl]-amide]
23 | 0.015 µM | 0.011 µM | – | C[C@@]1(c2cc(NC(=O)c3ncc(C#N)cc3Cl)ccc2F)COCC(N)=N1 [Example 67, 3-Chloro-5-cyano-pyridine-2-carboxylic acid [3-((R)-5-amino-3-methyl-3,6-dihydro-2H-[1,4]oxazin-3-yl)-4-fluoro-phenyl]-amide hydrochloride]
24 | 0.045 µM | 1.1 µM | – | CCc1cc(Cl)cnc1C(=O)Nc1ccc(F)c([C@]2(C)COCC(N)=N2)c1 [Example 70, 5-chloro-3-ethyl-pyridine-2-carboxylic acid [3-((R)-5-amino-3-methyl-3,6-dihydro-2H-[1,4]oxazin-3-yl)-4-fluoro-phenyl]-amide hydrochloride]
25 | 3.6 µM | > 10 µM | – | COCC1(C(=O)Nc2ccc(F)c([C@]3(C)COCC(N)=N3)c2)CC1 [Example 86, 1-methoxymethyl-cyclopropanecarboxylic acid [3-((R)-5-amino-3-methyl-3,6-dihydro-2H-[1,4]oxazin-3-yl)-4-fluoro-phenyl]-amide formate]
26 | 3.6 µM | > 10 µM | – | CC(C)CC(=O)Nc1ccc(F)c([C@]2(C)COCC(N)=N2)c1 [Example 95, N-[3-((R)-5-amino-3-methyl-3,6-dihydro-2H-[1,4]oxazin-3-yl)-4-fluoro-phenyl]-3-methyl-butyramide formate]
27 | 1.76 µM | > 10 µM | – | C[C@@]1(c2cc(NC=O)ccc2F)COCC(N)=N1 [Example 97, N-[3-((R)-5-Amino-3-methyl-3,6-dihydro-2H-[1,4]oxazin-3-yl)-4-fluoro-phenyl]-formamide formate]
